Source: US8871796B2, “Diaryl ether derivatives as notch sparing gamma secretase inhibitors” (Merck Sharp & Dohme Corp., priority 2009, dated 2014)
Where two headings read alike, the source gives them in different places.

Assay: APP processing: AlphaLisa assay of secreted Aβ40 and Aβ42 from SP4CT cells
Format: cell-based
Settings: Homo sapiens, SH-SY5Y cells expressing amyloid β protein (SP4CT cells)
How it was run: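 Secreted Aβ40 and Aβ42 were quantified separately by AlphaLisa luminescence, pairing streptavidin donor beads bearing biotinylated 4G8 with G210 or 12F4 acceptor beads. Samples were conditioned media from compound-treated SH-SY5Y cells expressing amyloid β protein (SP4CT).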

[1] = read-out: IC50, inhibition of production of Aβ40 peptide
[2] = read-out: IC50, inhibition of production of Aβ42 peptide

| Structure (SMILES) | IC50 [1] [nM] | IC50 [2] [nM] |
| --- | --- | --- |
| CCn1nc(-c2cccc(C(C)(C)NS(=O)(=O)CC(F)(F)F)c2)cc1Oc1ccc(-c2nnc(C)o2)cc1 [Example 75, N-[1-(3-{1-ethyl-5-[4-(5-methyl-1,3,4-oxadiazol-2-yl)phenoxy]-1H-pyrazol-3-yl}phenyl)-1-methylethyl]-2,2,2-trifluoroethanesulfonamide] | < 200 | < 200 |
| CCn1nc(Oc2ccc(C(F)(F)F)cc2)cc1-c1cccc(C(C)(C)NS(=O)(=O)CC(F)(F)F)c1 [Example 20, N-[1-(3-{1-ethyl-3-[4-(trifluoromethyl)phenoxy]-1H-pyrazol-5-yl}phenyl)-1-methylethyl]-2,2,2-trifluoroethanesulfonamide] | < 200 | < 200 |
| CCn1nc(-c2cccc(C(C)(C)NS(=O)(=O)N(C)C)c2)cc1Oc1ccc(C(F)(F)F)cc1 [Example 14, N′-[1-(3-{1-ethyl-5-[4-(trifluoromethyl)phenoxy]-1H-pyrazol-3-yl}phenyl)-1-methylethyl]-N,N-dimethylsulfamide] | < 200 | < 200 |
| CCn1nc(Oc2ccc(C(F)(F)F)cc2)cc1-c1cccc(C(C)(C)NS(=O)(=O)N2CCCCC2)c1 [Example 27, N-[1-(3-{1-ethyl-3-[4-(trifluoromethyl)phenoxy]-1H-pyrazol-5-yl}phenyl)-1 methylethyl]piperidine-1-sulfonamide] | < 200 | < 200 |
| CCn1nc(-c2cccc(C3(NS(=O)(=O)NC)CC3)c2)cc1Oc1ccc(C(F)(F)F)cn1 [Example 45, N-{1-[3-(1-ethyl-5-{[5-(trifluoromethyl)pyridin-2-yl]oxy}-1H-pyrazol-3-yl)phenyl]cyclopropyl}-N′-methylsulfamide] | < 200 | < 200 |
| CCn1nc(-c2cccc(C3(NS(=O)(=O)NCC(C)C)CC3)c2)cc1Oc1ccc(C(F)(F)F)cc1 [Example 47, N-[1-(3-{1-ethyl-5-[4-(trifluoromethyl)phenoxy]-1H-pyrazol-3-yl}phenyl)cyclopropyl]-N′-isobutylsulfamide] | < 200 | < 200 |
| CCn1nc(-c2ccc3c(c2)CC(NS(=O)(=O)NCC(F)(F)F)C3)cc1Oc1ccc(C(F)(F)F)cc1 (stereo not drawn) [Example 121] | < 200 | < 200 |
| CCn1nc(-c2cccc(C3(NS(=O)(=O)CC)CC3)c2)cc1Oc1ccc(C(F)(F)F)cc1 [Example 38, N-[1-(3-{1-ethyl-5-[4-(trifluoromethyl)phenoxy]-1H-pyrazol-3-yl}phenyl)cyclopropyl] ethanesulfonamide] | < 200 | < 200 |
| CCn1nc(-c2cccc(C(C)(C)NS(=O)(=O)CC(F)(F)F)c2)cc1Oc1ccc(C(C)(C)C)cc1 [Example 60, N-(1-{3-[5-(4-tert-butylphenoxy)-1-ethyl-1H-pyrazol-3-yl]phenyl}-1-methylethyl)-2,2,2-trifluoroethanesulfonamide] | < 200 | < 200 |
| CCn1nc(-c2cncc(C3(NS(=O)(=O)NCC(F)(F)F)COC3)c2)cc1Oc1ccc(C(F)(F)F)cc1 [Example 127, N-[3-(5-{1-ethyl-5-[4-(trifluoromethyl)phenoxy]-1H-pyrazol-3-yl}pyridine-3-yl)oxetan-3-yl]-N′-(2,2,2-trifluoroethyl)sulfamide] | < 200 | < 200 |
| CCn1nc(Oc2ccc(C(F)(F)F)cc2)c(Br)c1-c1cccc(C(C)(C)NS(=O)(=O)CC(F)(F)F)c1 [Example 114, N-[2-(3-{4-Bromo-1-ethyl-3-[4-(trifluoromethyl)phenoxy]-1H-pyrazol-5-yl}phenyl)propan-2-yl]-2,2,2-trifluoroethanesulfonamide] | < 200 | < 200 |
| CCn1nc(-c2cccc(C(C)(C)NS(=O)(=O)CC(F)(F)F)c2)cc1Oc1ccc(C(C)(C)O)cc1 [Example 70, N-[1-(3-{1-ethyl-5-[4-(1-hydroxy-1-methylethyl)phenoxy]-1H-pyrazol-3-yl}phenyl)-1-methylethyl]-2,2,2-trifluoroethanesulfonamide] | < 200 | < 200 |
| CCn1nc(-c2cccc(C3(NS(=O)(=O)NC4CCC4)CC3)c2)cc1Oc1ccc(C(F)(F)F)cn1 [Example 43, N-cyclobutyl-N′-{1-[3-(1-ethyl-5-{[5-(trifluoromethyl)pyridin-2-yl]oxy}-1H-pyrazol-3-yl)phenyl]cyclopropyl} sulfamide] | < 200 | < 200 |
| CCn1nc(-c2cccc(C(C)(C)NS(=O)(=O)NC)c2)cc1Oc1ccc(C(F)(F)F)cc1 [Example 10, N-[1-(3-{1-ethyl-5-[4-(trifluoromethyl)phenoxy]-1H-pyrazol-3-yl}phenyl)-1-methylethyl]-N′-methylsulfamide] | < 200 | < 200 |
| CCn1nc(-c2cccc(C(C)(C)NS(=O)(=O)CC(F)(F)F)c2)cc1Oc1ccc(CNCc2cccs2)cc1 [Example 88, N-(1-{3-[1-ethyl-5-(4-{[(2-thienylmethyl)amino]methyl}phenoxy)-1H-pyrazol-3-yl]phenyl}-1-methylethyl)-2,2,2-trifluoroethanesulfonamide] | < 200 | < 200 |
| CCn1nc(-c2cccc(C3(NS(=O)(=O)NC)CC3)c2)cc1Oc1ccc(C(F)(F)F)cc1 [Example 48, N-[1-(3-{1-ethyl-5-[4-(trifluoromethyl)phenoxy]-1H-pyrazol-3-yl}phenyl)cyclopropyl]-N′-methylsulfamide] | < 200 | < 200 |
| CCn1nc(-c2cccc(C3(NS(=O)(=O)CC(F)(F)F)COC3)c2)cc1Oc1ccc(C#N)cc1 [Example 128] | < 200 | < 200 |
| CCn1nc(Oc2ccc(C(F)(F)F)cn2)cc1-c1ccc2c(c1)CC(NS(=O)(=O)NCC(F)(F)F)C2 (stereo not drawn) [Example 122, N-[5-(1-ethyl-3-{[5-(trifluoromethyl)pyridin-2-yl]oxy}-1H-pyrazol-5-yl)-2,3-dihydro-1H-inden-2-yl]-N′-(2,2,2-trifluoroethyl)sulfamide] | < 200 | < 200 |
| CCn1nc(Oc2ccc(C(F)(F)F)cc2)cc1-c1cccc(C(C)(C)NS(=O)(=O)NC2CCCC2)c1 [Example 18, N-cyclopentyl-N′-[1-(3-{1-ethyl-3-[4-(trifluoromethyl)phenoxy]-H-pyrazol-5-yl}phenyl)-1-methylethyl]sulfamide] | < 200 | < 200 |
| CCn1nc(-c2cccc(C(C)(C)NS(=O)(=O)C3CC3)c2)cc1Oc1ccc(C(F)(F)F)cc1 [Example 12, N-[1-(3-{1-ethyl-5-[4-(trifluoromethyl)phenoxy]-1H-pyrazol-3-yl}phenyl)-1-methylethyl] cyclopropanesulfonamide] | < 200 | < 200 |
| CCn1nc(-c2cncc(C3(NS(=O)(=O)CC(F)(F)F)COC3)c2)cc1Oc1ccc(C(F)(F)F)cc1 [Example 126, N-[3-(5-{1-ethyl-5-[4-(trifluoromethyl)phenoxy]-1H-pyrazol-3-yl}pyridine-3-yl)oxetan-3-yl]-2,2,2-trifluoroethanesulfonamide] | < 200 | < 200 |
| CCn1nc(-c2cccc(C3(NS(=O)(=O)CC(F)(F)F)CC3)c2)cc1Oc1ccncc1 [Example 50, N-(1-{3-[1-ethyl-5-(pyridin-4-yloxy)-1H-pyrazol-3-yl]phenyl}cyclopropyl)-2,2,2-trifluoroethanesulfonamide] | < 200 | < 200 |
| CCn1nc(-c2cccc(C(C)(C)NS(=O)(=O)CC(F)(F)F)c2)cc1Oc1ccc(CNCC2CCOCC2)cc1 [Example 91, N-(1-{3-[1-ethyl-5-(4-{[(tetrahydro-2H-pyran-4-ylmethyl)amino]methyl}phenoxy)-1H-pyrazol-3-yl]phenyl}-1-methylethyl)-2,2,2-trifluoroethanesulfonamide] | < 200 | < 200 |
| CCn1nc(-c2cccc(C3(NS(=O)(=O)CC(F)(F)F)CC3)c2)cc1Oc1ncc(F)cn1 [Example 49, N-[1-(3-{1-ethyl-5-[(5-fluoropyrimidin-2-yl)oxy]-1H-pyrazol-3-yl}phenyl)cyclopropyl]-2,2,2-trifluoroethanesulfonamide] | < 200 | < 200 |
| CCn1nc(Oc2ccc(C(F)(F)F)cc2)cc1-c1cccc(C2(NS(=O)(=O)NC)CC2)c1 [Example 34, N-[1-(3-{1-ethyl-3-[4-(trifluoromethyl)phenoxy]-1H-pyrazol-5-yl}phenyl)cyclopropyl]-N′-methylsulfamide] | < 200 | < 200 |
| CCn1nc(-c2cccc(C3(NS(=O)(=O)CC(F)(F)F)CC3)n2)cc1Oc1ccc(C(F)(F)F)cc1 [Example 51, N-[1-(6-{1-ethyl-5-[4-(trifluoromethyl)phenoxy]-1H-pyrazol-3-yl}pyridin-2-yl)cyclopropyl]-2,2,2-trifluoroethanesulfonamide] | < 200 | < 200 |
| CCn1nc(-c2cccc(C3(NS(=O)(=O)NCC(F)(F)F)COC3)c2)cc1Oc1ccc(C#N)cc1 [Example 129, N-(3-{3-[5-(4-cyanophenoxy)-1-ethyl-1H-pyrazol-3-yl]phenyl}oxetane-3-yl)-N′-(2,2,2-trifluoroethyl)sulfamide] | < 200 | < 200 |
| CCn1nc(-c2cccc(C(C)(C)NS(=O)(=O)CC(F)(F)F)c2)cc1Oc1ccc(F)cc1 [Example 56, N-(1-{3-[1-ethyl-5-(4-fluorophenoxy)-1H-pyrazol-3-yl]phenyl}-1-methylethyl)-2,2,2-trifluoroethanesulfonamide] | < 200 | < 200 |
| CCn1nc(Oc2ccc(F)cc2)cc1-c1cccc(C(C)(C)NS(=O)(=O)NC2CCC2)c1 [Example 54, N-cyclobutyl-N′-(1-{3-[1-ethyl-3-(4-fluorophenoxy)-1H-pyrazol-5-yl]phenyl}-1-methylethyl)sulfamide] | < 200 | < 200 |
| CCn1nc(-c2cccc(C3(NS(=O)(=O)CC(F)(F)F)CC3)c2)cc1Oc1ccc(C(F)(F)F)cn1 [Example 44, N-{1-[3-(1-ethyl-5-{[5-(trifluoromethyl)pyridin-2-yl]oxy}-1H-pyrazol-3-yl)phenyl]cyclopropyl}-2,2,2-trifluoroethanesulfonamide] | < 200 | < 200 |
